Test results as given in the NIST ThermoML archive (doi:10.1021/je100598x).

Assay: cn = amount concentration of the nth substance listed, in mol/dm3
Conditions: 101 kPa, Liquid, Direct current cell with electrodes

CCCCCCCCCCCC[N+](CCC)(CCC)CCC.[Br-] [dodecyltripropylammonium bromide] + O
electrical conductivity [S/m]
Conditions	288.15 K	293.15 K	298.15 K	303.15 K
c1 = 0.001055	0.00819	0.00909	0.01006	0.01131
c1 = 0.002089	0.0153	0.01734	0.01942	0.0217
c1 = 0.003101	0.0222	0.025	0.0282	0.0316
c1 = 0.004092	0.0285	0.0326	0.0367	0.041
c1 = 0.005063	0.0346	0.0398	0.0448	0.0501
c1 = 0.006015	0.0405	0.0467	0.0527	0.059
c1 = 0.006948	0.0461	0.0533	0.0599	0.0675
c1 = 0.007862	0.0516	0.0594	0.0674	0.0757
c1 = 0.008759	0.0566	0.0658	0.0743	0.0832
c1 = 0.009639	0.0619	0.0714	0.0804	0.0896
c1 = 0.0105	0.0661	0.0761	0.0846	0.0945
c1 = 0.01135	0.0702	0.0797	0.0883	–
c1 = 0.01218	0.0731	0.0825	0.0919	–
c1 = 0.01319	0.0759	0.0851	0.0953	–
c1 = 0.01419	0.0783	0.0883	0.0985	–
c1 = 0.01516	0.0806	0.0906	0.1015	–
c1 = 0.01657	0.0837	0.0942	0.106	–
c1 = 0.01794	0.0866	0.0976	0.11	–
c1 = 0.01927	0.0895	0.1009	0.1137	–
c1 = 0.02055	0.0921	0.1041	0.117	–
c1 = 0.02179	0.0947	0.107	0.1211	–
c1 = 0.023	0.0973	0.1101	0.1245	–
c1 = 0.02417	0.0996	0.113	0.128	–
